Measurements published in patent publication US4629733A, “Indolinones and pharmaceutical compositions containing same” (Dr. Karl Thomae GmbH, priority 1980, dated 1986).

Legend:
[1] = tested on: mice; experiment: Acute toxicity; format: in vivo; settings: observation time 14 days
Experimental: The acute toxicity of the substances to be tested was determined in groups of 5 mice each each after peroral administration of a dose of 250 mg/kg or 1000 mg/kg (observation time: 14 days).

[2] = target: phosphodiesterase (PDE); experiment: PDE inhibition; format: biochemical; settings: 10,000×g supernatant of human blood platelets, 1 μmol/liter 3H-cAMP, pH 7.4, 15 minutes at 37° C.
Experimental: cAMP is hydrolysed to AMP by phosphodiesterase (PDE) from various sources, including blood platelets. This hydrolysis is inhibited by PDE inhibitors according to the concentration.
The phosphodiesterase used is the 10,000×g supernatant of human blood platelets which have been frozen with water and thawed out again. An amount of 0.3 ml of a mixture which contains 0.1 mol/liter of tri-hydroxy-aminomethane (pH 7.4), 3 mmol/liter of magnesium chloride, 1 mmol/liter of AMP, 1 μmol/liter of ^3 H-cAMP (specific activity about 10 MBq/μmol), PDE as well as the substance to be tested, and water for the control is incubated for 15 minutes at 37° C. The incubation is stopped by the addition of 0.5 ml of zinc sulphate (0.266 mol/liter) and 0.5 ml of barium hydroxide (0.226 mol/liter), the precipitate is centrifuged, and the activity remaining in the supernatant of the unreacted ^3 H-cAMP is determined. From a comparison of the substance preparations and the control preparations, the concentration for a 50% inhibiting activity (IC50) of the respective substance was calculated.

[3] = tested on: conscious mice; experiment: Determination of the prolongation of bleeding time; format: in vivo; settings: Mus musculus, po, 1 h, 10 mg/kg orally, after one hour, versus control group
Experimental: To measure the bleeding time, 10 mg/kg of the test compound is administered orally to conscious mice. After one hour 0.5 mm of the tip of the tail of the mouse is cut off, and the droplets of blood are gently removed with filter paper every 30 seconds. The number of drops of blood give a measure of the bleeding time (5 animals/experiment). The values in the following table represent the prolongation as a percentage as compared to a control group: […]

| SMILES | Acute toxicity per os (animals died) ([1]; 250 mg/kg peroral) | IC50 [2] | Acute toxicity per os (animals died) ([1]; 1000 mg/kg peroral) | change in vivo at 10 mg/kg [3] |
| --- | --- | --- | --- | --- |
| CC1(C)C(=O)Nc2ccc(OCCCC[S+]([O-])c3ccccc3)cc21 (stereo not drawn) [A, 3,3-Dimethyl-5-(4-phenylsulfinyl-butoxy)-indolinone-2] | 0 out of 5 | 2500 nM |  |  |
| CC1(C)C(=O)Nc2ccc(OCCCC[S+]([O-])c3ccc(Cl)c(Cl)c3)cc21 (stereo not drawn) [B, 3,3-Dimethyl-5-[4-(3,4-dichlorophenylsulfinyl)-butoxy]-indolinone-2] |  | 300 nM | 0 out of 6 | 59% |
| CC1(C)C(=O)Nc2ccc(OCCCCSc3ccc(C4CCCCC4)cc3)cc21 [C, 3,3-Dimethyl-5-[4-(4-cyclohexylphenylmercapto)-butoxy]-indolinone-2] |  | 2500 nM | 0 out of 6 |  |
| CC1(C)C(=O)Nc2ccc(OCCCC[S+]([O-])c3ccc(-c4ccccc4F)cc3)cc21 (stereo not drawn) [D, 3,3-Dimethyl-5-[4-(2'-fluoro-4-biphenylylsulfinyl)-butoxy]-indolinone-2] |  | 27 nM | 0 out of 6 | > 249% |
| COc1ccc([S+]([O-])CCCCOc2ccc3c(c2)C(C)(C)C(=O)N3)cc1OC (stereo not drawn) [E, 3,3-Dimethyl-5-[4-(3,4-dimethoxyphenylsulfinyl)-butoxy]-indolinone-2] |  | 540 nM | 0 out of 6 | > 198% |
| COc1cc2ccc(S(=O)(=O)CCCCOc3ccc4c(c3)C(C)(C)C(=O)N4)cc2cc1OC [F, 3,3-Dimethyl-5-[4-(6,7-dimethoxy-naphthyl-(2)-sulfonyl)butoxy]-indolinone-2] |  | 240 nM | 0 out of 6 | > 232% |
| CC(C)(C)c1cc([S+]([O-])CCCCOc2ccc3c(c2)C(C)(C)C(=O)N3)cc(C(C)(C)C)c1O (stereo not drawn) [G, 3,3-Dimethyl-5-[4-(3,5-di-tert.butyl-4-hydroxy-phenylsulfinyl)-butoxy]-indolinone-2] |  | 70 nM | 0 out of 6 | 154% |
| CC(C)(C)c1cc(S(=O)(=O)CCCCOc2ccc3c(c2)C(C)(C)C(=O)N3)cc(C(C)(C)C)c1O [H, 3,3-Dimethyl-5-[4-(3,5-di-tert.butyl-4-hydroxy-phenylsulfonyl)-butoxy]-indolinone-2] |  | 59 nM | 0 out of 6 | 149% |
| COc1ccc([S+]([O-])CCCCOc2ccc3c(c2)C(C)(C)C(=O)N3)cc1 (stereo not drawn) [I, 3,3-Dimethyl-5-[4-(4-methoxyphenyl-sulfinyl)-butoxy]-indolinone-2] |  | 500 nM | 0 out of 6 | > 214% |
| CC(C)(C)c1ccc([S+]([O-])CCCCOc2ccc3c(c2)C(C)(C)C(=O)N3)cc1 (stereo not drawn) [K, 3,3-Dimethyl-5-[4-(4-tert.butyl-phenyl-sulfinyl)-butoxy]-indolinone-2] |  | 270 nM | 0 out of 6 | > 285% |
| COc1cc2ccc([S+]([O-])CCCCOc3ccc4c(c3)C(C)(C)C(=O)N4)cc2cc1OC (stereo not drawn) [L, 3,3-Dimethyl-5-[4-(6,7-dimethoxy-naphthyl-(2)-sulfinyl)butoxy]-indolinone-2] |  | 240 nM | 0 out of 6 | 102% |
| CC1(C)C(=O)Nc2ccc(OCCCCSc3cc(Cl)c(O)c(Cl)c3)cc21 [M, 3,3-Dimethyl-5-[4-(3,5-dichloro-4-hydroxy-phenyl-mercapto)-butoxy]-indolinone-2] |  |  | 0 out of 6 | 140% |
| CC1(C)C(=O)Nc2ccc(OCCCC[S+]([O-])c3cc(Br)c(N)c(Br)c3)cc21 (stereo not drawn) [N, 3,3-Dimethyl-5-[4-(3,5-dibromo-4-amino-phenyl-sulfinyl)butoxy]-indolinone-2] |  | 110 nM | 0 out of 6 | > 254% |
| CC1(C)C(=O)Nc2ccc(OCCCC[S+]([O-])c3ccc4ccccc4c3)cc21 (stereo not drawn) [O, 3,3-Dimethyl-5-[4-(naphthyl-(2)-sulfinyl)-butoxy]-indolinone-2] |  | 110 nM | 0 out of 6 | 127% |
| CC1(C)C(=O)Nc2ccc(OCCCC[S+]([O-])c3ccc(Cl)cc3)cc21 (stereo not drawn) [P, 3,3-Dimethyl-5-[4-(4-chlorophenylsulfinyl)-butoxy]-indolinone-2] |  | 360 nM | 0 out of 6 | 114% |
| CC1(C)C(=O)Nc2ccc(OCCCCC[S+]([O-])c3ccc(C4CCCCC4)cc3)cc21 (stereo not drawn) [Q, 3,3-Dimethyl-5-[5-(4-cyclohexyl-phenyl-sulfinyl)-pentoxy]-indolinone-2] |  | 380 nM | 0 out of 6 | > 174% |
| CC(C)(C)c1ccc(S(=O)(=O)CCCCOc2ccc3c(c2)C(C)(C)C(=O)N3)cc1 [R, 3,3-Dimethyl-5-[4-(4-tert.butyl-phenyl-sulfonyl)-butoxy]-indolinone-2] |  | 240 nM | 0 out of 6 | > 242% |
| CC1(C)C(=O)Nc2ccc(OCCCC[S+]([O-])c3ccc(C4CCCCC4)cc3)cc21 (stereo not drawn) [S, 3,3-Dimethyl-5-[4-(4-cyclohexyl-phenyl-sulfinyl)-butoxy]-indolinone-2] |  | 58 nM | 0 out of 6 | 104% |
